Type in all cases: in vivo, Arabidopsis
One data set has as its system SYAC1 promoter. As to the kind of experiment: pSYAC1:GUS / pSYAC1:nlsGFP reporter expression in roots. The method, then: The syac1-1 (salk_151420C, Col-0, KAN^R) and syac1-2 (salk_151662B, Col-0, KAN^R) T-DNA insertion lines were obtained from the Salk Institute. The syac1-3 (GABI-KAT 760F05, Col-0, SUL^R) and syac1-4 (GABI-KAT 961C03, Col-0, SUL^R) T-DNA insertion lines were obtained from the GABI KAT seed collection. The syac1-5 CRISPR line was prepared in collaboration with the VBCF Protein Technologies Facility (www.vbcf.ac.at) (see below). The genetically modified fluorescent-protein marker lines in Col-0 background have been described elsewhere: mCherry tagged wave line 6, 9, 13, 18, 25, 29, 34, 127, 129, 131, 138 (Geldner et al., 2009, Plant J. 59, 169-178), SYP61:SYP61-CFP (Drakakaki et al., 2012, Cell Res. 22, 413-424). The echidna mutant has been described in (Gendre et al., 2011, PNAS 108, 8048-8053) and yip4a-2 yip4b-1 in (Gendre et al., 2013, The Plant Cell 25, 2633-2646). Seeds of Arabidopsis were plated and grown on square plates with solid half strength Murashige and Skoog (MS) medium (Duchefa) supplemented with 0.5 g L^−1 MES, 10 g L^−1 Sucrose, 1% agar and pH adjusted to 5.9. The plates were incubated at 4° C. for 48 h to synchronize seed germination and then vertically grown under a 16:8 h day/night cycle photoperiod at 21° C. Cytokinin and auxin treatments were performed with the N6-benzyladenine cytokinin derivative (Sigma) and Naphthaleneacetic acid (Sigma), respectively. Short treatments (6 hours) for GUS/GFP expression were performed with 10 μM cytokinin and 1 μM auxin (unless indicated differently). For root growth transient assay 0.1 μM cytokinin and 0.05 μM auxin was used. Estradiol treatment was performed with β-Estradiol (Sigma).
For promoter analysis of SYAC1, an upstream sequence of 2522 bp was amplified by PCR and introduced into the pDONRP4-P1R entry vector. Then transcriptional lines (pSYAC1:GUS, pSYAC1:nlsGFP) were created: for pSYAC1:GUS, an LR reaction with SYAC1 promoter in pDONORP4-P1R, pEN-L1-S-L2,0 and pK7m24GW,0 vectors was performed. For pSYAC1:nlsGFP line, an LR reaction with SYAC1 promoter in pDONORP4-P1R, pEN-L1-NF-L2,0 and pB7m24GW,0 was performed. […]

In data set [1] the test system is root tip of wild type control plants. Nature of the data set: Effect of excess copper on the primary root of seedlings grown on agar. The note with it: 5 days on normal media, then transferred to media containing 50 μM CuSO4. The method, then: Plants were grown for 5 days on normal AM+ media and then transferred to media containing 50 μM CuSO4.
The next data set relates to SYAC1 expression. Nature of the data set: Genome wide transcriptome profiling of roots exposed to auxin, cytokinin and both hormones. Conditions: 3 hours of treatment, 1 μM auxin, 10 μM cytokinin. The protocol:
The syac1-1 (salk_151420C, Col-0, KAN^R) and syac1-2 (salk_151662B, Col-0, KAN^R) T-DNA insertion lines were obtained from the Salk Institute. The syac1-3 (GABI-KAT 760F05, Col-0, SUL^R) and syac1-4 (GABI-KAT 961C03, Col-0, SUL^R) T-DNA insertion lines were obtained from the GABI KAT seed collection. The syac1-5 CRISPR line was prepared in collaboration with the VBCF Protein Technologies Facility (www.vbcf.ac.at) (see below). The genetically modified fluorescent-protein marker lines in Col-0 background have been described elsewhere: mCherry tagged wave line 6, 9, 13, 18, 25, 29, 34, 127, 129, 131, 138 (Geldner et al., 2009, Plant J. 59, 169-178), SYP61:SYP61-CFP (Drakakaki et al., 2012, Cell Res. 22, 413-424). The echidna mutant has been described in (Gendre et al., 2011, PNAS 108, 8048-8053) and yip4a-2 yip4b-1 in (Gendre et al., 2013, The Plant Cell 25, 2633-2646). […]
To search for novel molecular components and mechanisms of auxin-cytokinin cross-talk, genome wide transcriptome profiling of roots exposed to auxin, cytokinin and both hormones simultaneously, was performed. […] This SYAC1 expression profile in roots was further validated by quantitative real-time (RT-qPCR) (FIG. 2A). […]

Turning to `NC1(C(=O)O)CC1` [ACC, 1-aminocyclopropane-1-carboxylic acid], in the data set with SYAC1 promoter (roots treated with ACC only or in combination with cytokinin, auxin or both), the “enhancement of pSYAC1:GUS expression” value is listed as “No enhancement”.
As for `O=S(=O)([O-])[O-].[Cu+2]` [CuSO4], the “SYAC1 promoter-driven GUS expression in reporter lines” value in the data set on SYAC1 promoter (50 μM CuSO4 in ½MS plus Agar substrate) is on record as “able to trigger”. For the same molecule, the “swelling of cells at the root tip” value in data set [1] is “trigger swelling of cells at the root tip”.
For `O=C(O)Cc1cccc2ccccc12` [auxin, Naphthaleneacetic acid], the “SYAC1 expression compared to an untreated control” value with SYAC1 expression came out at 2.47±0.20.
Consider `c1ccc(CNc2ncnc3nc[nH]c23)cc1` [cytokinin, N6-benzyladenine], for which the “SYAC1 expression compared to an untreated control” value with SYAC1 expression is given as 1.53±0.19. In addition, in the data set on SYAC1 promoter (roots, 6 hours exposure), the “pSYAC1 reporter signal (pSYAC1:GUS, pSYAC1:nlsGFP)” value was “enhanced reporter signal in the quiescent center (QC) and columella initials (CI)”.

Values taken from patent US20210269815A1, “GENETICALLY MODIFIED PLANT AND USES THEREOF” (IST AUSTRIA, priority 2018, published 2021).
